Test results: US9663439B2, “Aildenafil citrate crystal form O, preparation method and use thereof” (priority 2010, dated 2017)
Where a name gives a salt, the structure may show the parent alone.

Legend:
[1] = Influencing factor test (high temperature, high humidity, illumination); assay type: physicochemical
castrated mice = experiment: Determination for sexual function of castrated mice; assay type: in vivo, Kunming strain mouse; settings: 15 mg/kg^−1, ig, 60 min after feeding the drug
Excerpt: Pharmacodynamic study: determination for sexual function of castrated mice 60 Kunming strain mouse (feeding 60 mouse with 18 g to 22 g weight in the same period) are randomly divided into 6 groups, each 10 mouse per group, wherein, 5 groups of mouse are implemented with bilateral orchidectomy under ether anesthesia state to have castration treatment, and the rest one group of mouse are only implemented with surgical separation, without removing the testicles, which can be taken as a sham operation control group. Each group of mouse are fed in cage, and are tested after 3 d. The sham operation control group and the model control group are fed with 0.5% CMC, […] crystal form O, the positive control group is fed with 6 mg·kg^−1 of Sildenafil; all are ig delivery modes, and the dose volumes are all 10 ml·kg^−1. Putting the single male mice in the cage 60 min after feeding the drug, and adding one female mice in each cage, recording the time that the male mice firstly catches the female mice since the female mice is put in the cage (namely, the capture incubation period), and recording the back-climbing times of the male mice within 30 min.

[2] = High-temperature test (first line; 60+/−2° C.), 0 month
[3] = High-temperature test (first line; 60+/−2° C.), 0.5 month
[4] = High-temperature test (first line; 60+/−2° C.), 1 month
[5] = High-temperature test (second line so named), 0 month
[6] = High-temperature test (second line so named), 0.5 month
[7] = High-temperature test (second line so named), 1 month
[8] = Illumination test (4500 lx+/−500 lx), 0 month
[9] = Illumination test (4500 lx+/−500 lx), 0.5 month
[10] = Illumination test (4500 lx+/−500 lx), 1 month
[11] = high light (4500 lx+/−500 lx), high temperature (60+/−2° C.), high humidity (RH 92.5%), 0 to 1 month

Appearance [1, 2]: White
Contents (HPLC area normalization method) [1, 2]: 99.96%
Related articles [1, 2]: 0.04%
Appearance [1, 3]: White
Contents (HPLC area normalization method) [1, 3]: 99.96%
Infrared absorption spectrum [1, 3]: Unchanged
PXRD [1, 3]: Unchanged
Related articles [1, 3]: 0.04%
Appearance [1, 4]: White
Contents (HPLC area normalization method) [1, 4]: 99.95%
Infrared absorption spectrum [1, 4]: Unchanged
PXRD [1, 4]: Unchanged
Related articles [1, 4]: 0.04%
Appearance [1, 5]: White
Contents (HPLC area normalization method) [1, 5]: 99.96%
Related articles [1, 5]: 0.04%
Appearance [1, 6]: White
Contents (HPLC area normalization method) [1, 6]: 99.95%
Infrared absorption spectrum [1, 6]: Unchanged
PXRD [1, 6]: Unchanged
Related articles [1, 6]: 0.04%
Appearance [1, 7]: White
Contents (HPLC area normalization method) [1, 7]: 99.96%
Infrared absorption spectrum [1, 7]: Unchanged
PXRD [1, 7]: Unchanged
Related articles [1, 7]: 0.05%
Appearance [1, 8]: White
Contents (HPLC area normalization method) [1, 8]: 99.96%
Related articles [1, 8]: 0.04%
Appearance [1, 9]: White
Contents (HPLC area normalization method) [1, 9]: 99.96%
Infrared absorption spectrum [1, 9]: Unchanged
PXRD [1, 9]: Unchanged
Related articles [1, 9]: 0.04%
Appearance [1, 10]: White
Contents (HPLC area normalization method) [1, 10]: 99.96%
Infrared absorption spectrum [1, 10]: Unchanged
PXRD [1, 10]: Unchanged
Related articles [1, 10]: 0.04%
chemical stability (related articles and contents) [1, 11]: excellent chemical stability
crystal form stability (appearance, PXRD, infrared absorption spectrum) [1, 11]: stable
SMILES: CCCc1nn(C)c2c(=O)[nH]c(-c3cc(S(=O)(=O)N4C[C@@H](C)N[C@@H](C)C4)ccc3OCC)nc12 [Aildenafil citrate crystal form O]
capture incubation period shortened (castrated mice): 201%
capture times increased (castrated mice; within 30 min): 4.4 times
